# Assay results from patent US20030095958A1, “Inhibitors of bace” (priority 2001, published 2003).
# Biological target: BACE (Homo sapiens, UniProt P56817)
# Experiment: Ki Determination for the Inhibition of BACE (FS-1 peptide fluorescence cleavage assay)
# Type: biochemical
# Details: apparent Ki; 50 nM BACE, 10 μM FS-1 substrate, 0.1M sodium acetate pH 4.5
# Method in brief: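 Apparent Ki values derive from fitting fluorescence progress data (355 nm excitation, 495 nm emission) of FS-1 peptide cleavage to an integrated competitive tight-binding model. Reactions held 50 nM BACE, 10 μM substrate and inhibitor in 2% DMSO, pH 4.5 acetate buffer, with a 15 min enzyme-compound preincubation at room temperature.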
# Sequence of BACE (P56817 46-501): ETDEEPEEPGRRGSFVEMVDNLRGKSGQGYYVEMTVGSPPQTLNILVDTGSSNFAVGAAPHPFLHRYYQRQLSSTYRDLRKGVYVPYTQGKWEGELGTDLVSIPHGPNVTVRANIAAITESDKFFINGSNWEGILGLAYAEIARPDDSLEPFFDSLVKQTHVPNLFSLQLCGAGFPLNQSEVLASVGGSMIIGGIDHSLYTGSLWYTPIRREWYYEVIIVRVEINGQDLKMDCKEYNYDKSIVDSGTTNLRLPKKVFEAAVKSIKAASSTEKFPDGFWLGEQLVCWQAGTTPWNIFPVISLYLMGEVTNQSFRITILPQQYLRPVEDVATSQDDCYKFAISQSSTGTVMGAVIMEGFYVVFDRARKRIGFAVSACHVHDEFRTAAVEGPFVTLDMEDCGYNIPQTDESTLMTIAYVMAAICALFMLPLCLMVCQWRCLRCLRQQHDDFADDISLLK
row,SMILES,Ki [µM]
1,"O=C(C1CNCCC1c1ccc(COc2ccccc2C(F)(F)F)cc1)N1CCc2ccccc2C1 (stereo not shown) [Compound 205, (3,4-Dihydro-1H-isoquinolin-2-yl)-{4-[4-(2-trifluoromethyl-phenoxymethyl)-phenyl]-piperidin-3-yl}-methanone]",> 30
2,"O=C(Nc1ccc2ccccc2c1)C1CNCCN1C(=O)c1cccc(COc2ccccc2C(F)(F)F)c1 (stereo not shown) [Compound 206, 1-[3-(2-Trifluoromethyl-phenoxymethyl)-benzoyl]-piperazine-2-carboxylic acid naphthalen-2-ylamide]",> 30
3,"O=C(O)C1CCCCC1C(=O)NCC1CNCCC1c1ccc(COc2ccccc2C(F)(F)F)cc1 (stereo not shown) [Compound 207, 2-({4-[4-(2-Trifluoromethyl-phenoxymethyl)-phenyl]-piperidin-3-ylmethyl}-carbamoyl)-cyclohexanecarboxylic acid]",> 30
4,"O=C(NCc1ccccc1OC(F)(F)F)C1CNCCC1c1ccc(COc2ccccc2C(F)(F)F)cc1 (stereo not shown) [Compound 208, 4-[4-(2-Trifluoromethyl-phenoxymethyl)-phenyl]-piperidine-3-carboxylic acid 2-trifluoromethoxy-benzylamide]",> 30
5,"O=C(NC1CCCc2ccccc21)C1CNCCC1c1ccc(COc2ccccc2C(F)(F)F)cc1 (stereo not shown) [Compound 209, 4-[4-(2-Trifluoromethyl-phenoxymethyl)-phenyl]-piperidine-3-carboxylic acid (1,2,3,4-tetrahydro-naphthalen-1-yl)-amide]",3 to 30
6,"C1=C(c2cnc(OCc3ccccc3)nc2OCc2ccccc2)CCNC1 [Compound 210, 2,4-Bis-benzyloxy-5-(1,2,3,6-tetrahydro-pyridin-4-yl)-pyrimidine]",3 to 30
7,"O=C(NC(c1ccccc1)c1ccccc1)C1CNCCC1c1ccc(COc2ccccc2C(F)(F)F)cc1 (stereo not shown) [Compound 211, 4-[4-(2-Trifluoromethyl-phenoxymethyl)-phenyl]-piperidine-3-carboxylic acid benzhydryl-amide]",3 to 30
8,"O=C1c2ccccc2C(=O)N1CC1CNCCC1c1ccc(COc2ccccc2C(F)(F)F)cc1 (stereo not shown) [Compound 212, 2-{4-[4-(2-Trifluoromethyl-phenoxymethyl)-phenyl]-piperidin-3-ylmethyl}-isoindole-1,3-dione]",3 to 30
9,"O=C(O)c1cc2ccccc2cc1C(=O)NCC1CNCCC1c1ccc(COc2ccccc2C(F)(F)F)cc1 (stereo not shown) [Compound 213, 3-({4-[4-(2-Trifluoromethyl-phenoxymethyl)-phenyl]-piperidin-3-ylmethyl}-carbamoyl)-naphthalene-2-carboxylic acid]",3 to 30
10,"O=c1cc(-c2ccccc2)nc(C2CCNCC2)n1Cc1ccccc1C(F)(F)F [Compound 214, 6-Phenyl-2-piperidin-4-yl-3-(2-trifluoromethyl-benzyl)-3H-pyrimidin-4-one]",3 to 30
11,"O=C(NCc1cccc2ccccc12)C1CNCCC1c1ccc(COc2ccccc2C(F)(F)F)cc1 (stereo not shown) [Compound 215, 4-[4-(2-Trifluoromethyl-phenoxymethyl)-phenyl]-piperidine-3-carboxylic acid (naphthalen-1-ylmethyl)-amide]",3 to 30
12,"O=C(Nc1ccc2ccccc2c1)C1CNCCC1c1ccc(COc2ccccc2C(F)(F)F)cc1 (stereo not shown) [Compound 216, 4-[4-(2-Trifluoromethyl-phenoxymethyl)-phenyl]-piperidine-3-carboxylic acid naphthalen-2-ylamide]",3 to 30
13,"O=C(Nc1cnc(-c2ccc(Cl)c(Cl)c2)nc1N1CCNCC1)c1cccc2ccccc12 [Compound 217, Naphthalene-1-carboxylic acid [2-(3,4-dichloro-phenyl)-4-piperazin-1-yl-pyrimidin-5-yl]-amide]",3 to 30
14,"O=c1cc(-c2ccccc2)nc(C2CCNCC2)n1Cc1ccc2ccccc2c1 [Compound 218, 3-Naphthalen-2-ylmethyl-6-phenyl-2-piperidin-4-yl-3H-pyrimidin-4-one]",3 to 30
15,"O=C(NC1CCc2ccccc2C1)C1CNCCC1c1ccc(COc2ccccc2C(F)(F)F)cc1 (stereo not shown) [Compound 219, 4-[4-(2-Trifluoromethyl-phenoxymethyl)-phenyl]-piperidine-3-carboxylic acid (1,2,3,4-tetrahydro-naphthalen-2-yl)-amide]",3 to 30
16,"O=C(C1CNCCC1c1ccc(COc2ccccc2C(F)(F)F)cc1)N(Cc1ccccc1)c1ccc2ccccc2c1 (stereo not shown) [Compound 220, 4-[4-(2-Trifluoromethyl-phenoxymethyl)-phenyl]-piperidine-3-carboxylic acid benzyl-naphthalen-2-yl-amide]",3 to 30
17,"O=C(NCC1CNCCC1c1ccc(COc2ccccc2C(F)(F)F)cc1)c1cccc2ccccc12 (stereo not shown) [Compound 221, Naphthalene-1-carboxylic acid {4-[4-(2-trifluoromethyl-phenoxymethyl)-phenyl]-piperidin-3-ylmethyl}-amide]",3 to 30

row,SMILES,Ki [µM]
1,"O=C(NCC1CNCCC1c1ccc(COc2ccccc2C(F)(F)F)cc1)c1ccc2ccccc2c1 (stereo not shown) [Compound 222, Naphthalene-2-carboxylic acid {4-[4-(2-trifluoromethyl-phenoxymethyl)-phenyl]-piperidin-3-ylmethyl}-amide]",3 to 30
2,"O=C(NC(Cc1ccccc1)C(=O)N1CCCC1C(=O)NCC1CNCCC1c1ccc(COc2ccccc2C(F)(F)F)cc1)OCc1ccccc1 (stereo not shown) [Compound 223, {1-Benzyl-2-oxo-2-[2-({4-[4-(2-trifluoromethyl-phenoxymethyl)-phenyl]-piperidin-3-ylmethyl}-carbamoyl)-pyrrolidin-1-yl]-ethyl}-carbamic acid benzyl ester]",3 to 30
3,"O=C(NCC1CNCCC1c1ccc(COc2ccccc2C(F)(F)F)cc1)Nc1cccc2ccccc12 (stereo not shown) [Compound 224, 1-Naphthalen-1-yl-3-{4-[4-(2-trifluoromethyl-phenoxymethyl)-phenyl]-piperidin-3-ylmethyl}-urea]",3 to 30
4,"O=C(CNC(=O)C(Cc1ccccc1)NC(=O)OCc1ccccc1)NCC1CNCCC1c1ccc(COc2ccccc2C(F)(F)F)cc1 (stereo not shown) [Compound 225, (2-Phenyl-1-{[({4-[4-(2-trifluoromethyl-phenoxymethyl)-phenyl]-piperidin-3-ylmethyl}-carbamoyl)-methyl]-carbamoyl}-ethyl)-carbamic acid benzyl ester]",3 to 30
5,"CNCCN(C)c1ccc(-c2ccc(C(F)(F)F)cc2)cc1NCc1ccc2ccccc2c1 [Compound 226, N4-Methyl-N4-(2-methylamino-ethyl)-N3-naphthalen-2-ylmethyl-4′-trifluoromethyl-biphenyl-3,4-diamine]",< 3
6,"O=C(Nc1ccc(-c2ccc(Cl)c(Cl)c2)nc1N1CCNCC1)c1cccc2ccccc12 [Compound 227, Naphthalene-1-carboxylic acid [6-(3,4-dichloro-phenyl)-2-piperazin-1-yl-pyridin-3-yl]-amide]",< 3
7,"O=C(NCC1CNCCC1c1ccc(COc2ccccc2C(F)(F)F)cc1)Oc1ccc2ccccc2c1 (stereo not shown) [Compound 228, {4-[4-(2-Trifluoromethyl-phenoxymethyl)-phenyl]-piperidin-3-ylmethyl}-carbamic acid naphthalen-2-yl ester]",< 3
8,"O=C(NCC1CNCCC1c1ccc(COc2ccccc2C(F)(F)F)cc1)Oc1cccc2ccccc12 (stereo not shown) [Compound 229, {4-[4-(2-Trifluoromethyl-phenoxymethyl)-phenyl]-piperidin-3-ylmethyl}-carbamic acid naphthalen-1-yl ester]",< 3
9,"O=C(NC(Cc1c[nH]c2ccccc12)C(=O)N1CCCC1C(=O)NCC1CNCCC1c1ccc(COc2ccccc2C(F)(F)F)cc1)OCC1c2ccccc2-c2ccccc21 (stereo not shown) [Compound 230, {1-(1H-Indol-3-ylmethyl)-2-oxo-2-[2-{{4-[4-(2-trifluoromethyl-phenoxymethyl)-phenyl]-piperidin-3-ylmethyl}-carbamoyl)-pyrrolidin-1-yl]-ethyl}-carbamic acid 9H-fluoren-9-ylmethyl ester]",< 3
10,"O=S(=O)(NCC1CNCCC1c1ccc(COc2ccccc2C(F)(F)F)cc1)c1ccc2ccccc2c1 (stereo not shown) [Compound 231, Naphthalene-2-sulfonic acid {4-[4-(2-trifluoromethyl-phenoxymethyl)-phenyl]-piperidin-3-ylmethyl}-amide]",< 3
11,"O=C(NCC1CNCCC1c1ccc(COc2ccccc2C(F)(F)F)cc1)Nc1ccc2ccccc2c1 (stereo not shown) [Compound 232, 1-Naphthalen-2-yl-3-{4-[4-(2-trifluoromethyl-phenoxymethyl)-phenyl]-piperidin-3-ylmethyl}-urea]",< 3
12,"FC(F)(F)c1ccccc1OCc1cc(-c2cccc3ccccc23)c(COc2ccccc2C(F)(F)F)cc1C1=CCNCC1 [Compound 301, 4-[4-Naphthalen-1-yl-2,5-bis-(2-trifluoromethyl-phenoxymethyl)-phenyl]-1,2,3,6-tetrahydro-pyridine]",< 3
13,"C1=C(c2ccc(-c3ccccc3)cc2)C(COc2ccc3ccccc3c2)CNC1 (stereo not shown) [Compound 302, 4-Biphenyl-4-yl-3-(naphthalen-2-yloxymethyl)-1,2,3,6-tetrahydro-pyridine]",< 3
14,"FC(F)(F)c1ccccc1OCc1ccc(COc2ccccc2C(F)(F)F)c(C2=CCNCC2)c1 [Compound 303, 4-[2,5-Bis-(2-trifluoromethyl-phenoxymethyl)-phenyl]-1,2,3,6-tetrahydro-pyridine]",< 3
15,"FC(F)(F)c1ccccc1OCc1cccc(COc2ccccc2C(F)(F)F)c1C1=CCNCC1 [Compound 304, 4-[2,6-Bis-(2-trifluoromethyl-phenoxymethyl)-phenyl]-1,2,3,6-tetrahydro-pyridine]",< 3
16,"c1ccc(COc2ccc3c(c2)c2c(n3Cc3ccc4ccccc4c3)CNCC2)cc1 [Compound 305, 6-Benzyloxy-9-naphthalen-2-ylmethyl-2,3,4,9-tetrahydro-1H-b-carboline]",3 to 30
17,"FC(F)(F)c1ccccc1OCc1cc(-c2ccccc2)c(COc2ccccc2C(F)(F)F)cc1C1=CCNCC1 [Compound 306, 4-[2,5-Bis-(2-trifluoromethyl-phenoxymethyl)-biphenyl-4-yl]-1,2,3,6-tetrahydro-pyridine]",< 3
